Test results: US10357477B2, “Anticancer compounds” (REGENTS OF THE UNIVERSITY OF MINNESOTA, priority 2016, dated 2019)

Assays:
MIA PaCa-2 cells = assay: Cell viability assay (MTT) in MIA PaCa-2 cells; type: cell-based; details: Homo sapiens, antiproliferative activity, 72 h
Procedure: MIA PaCa-2 cells (CRL-1420, ATCC) were maintained in DMEM media supplemented with 10% FBS, 2.5% HS, 1% GlutaMAX, 1% sodium pyruvate, 100 U/mL penicillin, and 100 μg/mL streptomycin. Cell culture media and additives were purchased from Gibco. Cells were plated in 96-well plates at |1−2.5|×10^4 cells per well in the DMEM growth media. One microliter of a 2-fold serially diluted compound solution in DMSO (Sigma) starting at 20 mM (100 μM final concentration) was added to each well. The final volume in each well was 200 μL, yielding a final DMSO concentration of 0.5%. Control wells contained 0.5% DMSO (100% viability) or 25% DMSO (background) and all reactions were done in triplicate. The plate was incubated for 72 h at 37° C. in a 5% CO2/95% air humidified atmosphere.
Measurement of cell viability was carried out using a modified method of Mosmann based on 3-(4,5-dimethylthiazol-2-yl)-2,5-diphenyltetrazolium bromide (MTT, Sigma). MTT solution was prepared fresh at 1 mg/mL in serum-free and phenol red-free RPMI 1640 media. After 200 μL of MTT solution was added to each well, the plate was incubated as described above for 3 h. The MTT solution was removed, and the formazan crystals were solubilized with 200 μL of isopropanol. The plate was read on a SpectraMax i3 spectrophotometer (Molecular Devices) at 570 nm for formazan and 650 nm for background subtraction. EC50 values were calculated by fitting the data in GraphPad Prism software. EC50 values were determined in triplicate.

Panc-1 cells = assay: Cell viability assay (MTT) in Panc-1 cells; type: cell-based; details: Homo sapiens, antiproliferative activity, 72 h
Procedure: Panc-1 cells are maintained in RPMI 1640 (Invitrogen 11875) media supplemented with 10% FBS, 1% Penicillin/Streptomycin and 1% Glutamax-1. Cells were plated in 96-well plates at 25×10^4 cells/ml. After 24 hours, compounds were added at 9, 3× dilutions in triplicate from 100 uM final concentration in the appropriate growth media. Plates were incubated for 72 hours at 37° C. in a 5% CO2/95% air humidified atmosphere after which time the media was removed and MTT was added in RPMI phenol red free media. The MTT was removed after 3 hours and formazan crystals were solubilized with 200 μL of isopropanol. Plates were read on a Molecular Devices SpectraMax i3 spectrophotometer at 570 nm for formazan and 690 nm for background subtraction. EC50 values were calculated by fitting the data in GraphPad Prism software.

`Cc1nn(Cc2cccc(C(N)=O)c2)c(C)c1NC(=O)c1ccc(COc2ccccc2)cc1` [Compound A2b, N-(1-(3-Carbamoylbenzyl)-3,5-dimethyl-1H-pyrazol-4-yl)-4-(phenoxymethyl)benzamide] showed an EC50 (MIA PaCa-2 cells) of 9.2 µM and an EC50 (Panc-1 cells) of 11 µM.

For `Cc1nn(Cc2ccccc2C(N)=O)c(C)c1NC(=O)c1ccc(COc2ccccc2)cc1` [Compound A2c, N-(1-(2-Carbamoylbenzyl)-3,5-dimethyl-1H-pyrazol-4-yl)-4-(phenoxymethyl)benzamide], the EC50 (MIA PaCa-2 cells) was 42 µM and the EC50 (Panc-1 cells) was > 100 µM.

With `CNC(=O)c1ccc(Cn2nc(C)c(NC(=O)c3ccc(COc4ccccc4)cc3)c2C)cc1` [Compound A3a, N-(3,5-Dimethyl-1-(4-(methylcarbamoyl)benzyl)-1H-pyrazol-4-yl)-4-(phenoxymethyl)benzamide] the EC50 (MIA PaCa-2 cells) was 12 µM and the EC50 (Panc-1 cells) was 36 µM.

With `CNC(=O)c1cccc(Cn2nc(C)c(NC(=O)c3ccc(COc4ccccc4)cc3)c2C)c1` [Compound A3b, 3-((3,5-Dimethyl-4-(4-(phenoxymethyl)benzamido)-1H-pyrazol-1-yl)methyl)-N-methylbenzamide] the EC50 (MIA PaCa-2 cells) was 6.2 µM and the EC50 (Panc-1 cells) was 5.2 µM.

`CNC(=O)c1ccccc1Cn1nc(C)c(NC(=O)c2ccc(COc3ccccc3)cc2)c1C` [Compound A3c, 2-((3,5-Dimethyl-4-(4-(phenoxymethyl)benzamido)-1H-pyrazol-1-yl)methyl)-N-methylbenzamide] was tested, and the EC50 (MIA PaCa-2 cells) was 7.7 µM and the EC50 (Panc-1 cells) was 14 µM.

For `Cc1nn(Cc2cccc(C(=O)N(C)C)c2)c(C)c1NC(=O)c1ccc(COc2ccccc2)cc1` [Compound A4a, 3-((3,5-Dimethyl-4-(4-(phenoxymethyl)benzamido)-1H-pyrazol-1-yl)methyl)-N,N-dimethylbenzamide], the EC50 (MIA PaCa-2 cells) was 6.4 µM and the EC50 (Panc-1 cells) was 1.2 µM.

For `CCNC(=O)c1cccc(Cn2nc(C)c(NC(=O)c3ccc(COc4ccccc4)cc3)c2C)c1` [Compound A4b, 3-((3,5-Dimethyl-4-(4-(phenoxymethyl)benzamido)-1H-pyrazol-1-yl)methyl)-N-ethylbenzamide], the EC50 (MIA PaCa-2 cells) was 11 µM and the EC50 (Panc-1 cells) was 1.6 µM.

In the case of `Cc1nn(Cc2cccc(C(=O)NC(C)C)c2)c(C)c1NC(=O)c1ccc(COc2ccccc2)cc1` [Compound A4c, 3-((3,5-Dimethyl-4-(4-(phenoxymethyl)benzamido)-1H-pyrazol-1-yl)methyl)-N-isopropylbenzamide], the EC50 (MIA PaCa-2 cells) is reported as 8.9 µM and the EC50 (Panc-1 cells) is reported as 1.4 µM.

Molecule `Cc1nn(Cc2ccc([N+](=O)[O-])cc2)c(C)c1NC(=O)c1ccc(COc2ccccc2)cc1` [Compound A5a, N-(3,5-Dimethyl-1-(4-nitrobenzyl)-1H-pyrazol-4-yl)-4-(phenoxymethyl)benzamide] has an EC50 (MIA PaCa-2 cells) of 7.8 µM and an EC50 (Panc-1 cells) of 23 µM.

Work on `Cc1nn(Cc2cccc([N+](=O)[O-])c2)c(C)c1NC(=O)c1ccc(COc2ccccc2)cc1` [Compound A5b, N-(3,5-Dimethyl-1-(3-nitrobenzyl)-1H-pyrazol-4-yl)-4-(phenoxymethyl)benzamide] yielded an EC50 (MIA PaCa-2 cells) of 11 µM and an EC50 (Panc-1 cells) of 20 µM.

Work on `Cc1nn(Cc2ccccc2[N+](=O)[O-])c(C)c1NC(=O)c1ccc(COc2ccccc2)cc1` [Compound A5c, N-(3,5-Dimethyl-1-(2-nitrobenzyl)-1H-pyrazol-4-yl)-4-(phenoxymethyl)benzamide] yielded an EC50 (MIA PaCa-2 cells) of 6 µM and an EC50 (Panc-1 cells) of 5.3 µM.

For `Cc1nn(Cc2ccc(N)cc2)c(C)c1NC(=O)c1ccc(COc2ccccc2)cc1` [Compound A6a, N-(1-(4-Aminobenzyl)-3,5-dimethyl-1H-pyrazol-4-yl)-4-(phenoxymethyl)benzamide], the EC50 (MIA PaCa-2 cells) was > 100 µM and the EC50 (Panc-1 cells) was 44 µM.

In the case of `Cc1nn(Cc2cccc(N)c2)c(C)c1NC(=O)c1ccc(COc2ccccc2)cc1` [Compound A6b, N-(1-(3-Aminobenzyl)-3,5-dimethyl-1H-pyrazol-4-yl)-4-(phenoxymethyl)benzamide], the EC50 (MIA PaCa-2 cells) is reported as 35 µM and the EC50 (Panc-1 cells) is reported as 9.7 µM.

`Cc1nn(Cc2ccccc2N)c(C)c1NC(=O)c1ccc(COc2ccccc2)cc1` [Compound A6c, N-(1-(2-Aminobenzyl)-3,5-dimethyl-1H-pyrazol-4-yl)-4-(phenoxymethyl)benzamide] showed an EC50 (MIA PaCa-2 cells) of 11 µM and an EC50 (Panc-1 cells) of 22 µM.

In the case of `CC(=O)Nc1ccc(Cn2nc(C)c(NC(=O)c3ccc(COc4ccccc4)cc3)c2C)cc1` [Compound A7a, N-(1-(4-Acetamidobenzyl)-3,5-dimethyl-1H-pyrazol-4-yl)-4-(phenoxymethyl)benzamide], the EC50 (MIA PaCa-2 cells) is reported as 50 µM and the EC50 (Panc-1 cells) is reported as > 100 µM.

For `CC(=O)Nc1cccc(Cn2nc(C)c(NC(=O)c3ccc(COc4ccccc4)cc3)c2C)c1` [Compound A7b, N-(1-(3-Acetamidobenzyl)-3,5-dimethyl-1H-pyrazol-4-yl)-4-(phenoxymethyl)benzamide], the EC50 (MIA PaCa-2 cells) was 2.7 µM and the EC50 (Panc-1 cells) was 12 µM.

Molecule `CC(=O)Nc1ccccc1Cn1nc(C)c(NC(=O)c2ccc(COc3ccccc3)cc2)c1C` [Compound A7c, N-(1-(2-Acetamidobenzyl)-3,5-dimethyl-1H-pyrazol-4-yl)-4-(phenoxymethyl)benzamide] has an EC50 (MIA PaCa-2 cells) of 2.6 µM and an EC50 (Panc-1 cells) of 31 µM.

Molecule `CNC(=O)c1cccc(Cn2nc(C)c(NC(=O)c3ccc(CCc4ccccc4)cc3)c2C)c1` [Compound C3, 3-((3,5-Dimethyl-4-(4-phenethylbenzamido)-1H-pyrazol-1-yl)methyl)-N-methylbenzamide] has an EC50 (MIA PaCa-2 cells) of 5.4 µM and an EC50 (Panc-1 cells) of 0.76 µM.

`CNC(=O)c1cccc(Cn2nc(C)c(NC(=O)c3ccc(C(=O)Nc4ccccc4)cc3)c2C)c1` [Compound C4, N^1-(3,5-Dimethyl-1-(3-(methylcarbamoyl)benzyl)-1H-pyrazol-4-yl)-N^4-phenylterephthalamide] showed an EC50 (MIA PaCa-2 cells) of 69 µM and an EC50 (Panc-1 cells) of 51 µM.

`CNC(=O)c1cccc(Cn2nc(C)c(NC(=O)c3ccc(OCc4ccccc4)cc3)c2C)c1` [Compound C5, 3-((4-(4-(Benzyloxy)benzamido)-3,5-dimethyl-1H-pyrazol-1-yl)methyl)-N-methylbenzamide] gave an EC50 (MIA PaCa-2 cells) of 8.2 µM and an EC50 (Panc-1 cells) of 6 µM.

`CNC(=O)c1cccc(Cn2nc(C)c(NC(=O)c3ccc(COc4cccc5ccccc45)cc3)c2C)c1` [Compound D2, 3-((3,5-Dimethyl-4-(4-((naphthalen-1-yloxy)methyl)benzamido)-1H-pyrazol-1-yl)methyl)-N-methylbenzamide] showed an EC50 (MIA PaCa-2 cells) of 6 µM and an EC50 (Panc-1 cells) of 1.3 µM.

`CNC(=O)c1cccc(Cn2nc(C)c(NC(=O)c3ccc(COc4ccccc4C)cc3)c2C)c1` [Compound D3a, 3-((3,5-Dimethyl-4-(4-((o-tolyloxy)methyl)benzamido)-1H-pyrazol-1-yl)methyl)-N-methylbenzamide] gave an EC50 (MIA PaCa-2 cells) of 2.1 µM and an EC50 (Panc-1 cells) of 0.61 µM.

In the case of `CNC(=O)c1cccc(Cn2nc(C)c(NC(=O)c3ccc(COc4cccc(C)c4)cc3)c2C)c1` [Compound D3b, 3-((3,5-Dimethyl-4-(4-((m-tolyloxy)methyl)benzamido)-1H-pyrazol-1-yl)methyl)-N-methylbenzamide], the EC50 (MIA PaCa-2 cells) is reported as 6.2 µM and the EC50 (Panc-1 cells) is reported as 0.56 µM.

Work on `CNC(=O)c1cccc(Cn2nc(C)c(NC(=O)c3ccc(COc4ccc(C)cc4)cc3)c2C)c1` [Compound D3c, 3-((3,5-Dimethyl-4-(4-((p-tolyloxy)methyl)benzamido)-1H-pyrazol-1-yl)methyl)-N-methylbenzamide] yielded an EC50 (MIA PaCa-2 cells) of 2.6 µM and an EC50 (Panc-1 cells) of 13 µM.

Work on `CNC(=O)c1cccc(Cn2nc(C)c(NC(=O)c3ccc(COc4ccccc4OC)cc3)c2C)c1` [Compound D4a, 3-((4-(4-((2-Methoxyphenoxy)methyl)benzamido)-3,5-dimethyl-1H-pyrazol-1-yl)methyl)-N-methylbenzamide] yielded an EC50 (MIA PaCa-2 cells) of 8.5 µM and an EC50 (Panc-1 cells) of 25 µM.

`CNC(=O)c1cccc(Cn2nc(C)c(NC(=O)c3ccc(COc4cccc(OC)c4)cc3)c2C)c1` [Compound D4b, 3-((4-(4-((3-Methoxyphenoxy)methyl)benzamido)-3,5-dimethyl-1H-pyrazol-1-yl)methyl)-N-methylbenzamide] gave an EC50 (MIA PaCa-2 cells) of 6.2 µM and an EC50 (Panc-1 cells) of 6.2 µM.

Molecule `CNC(=O)c1cccc(Cn2nc(C)c(NC(=O)c3ccc(COc4ccc(OC)cc4)cc3)c2C)c1` [Compound D4c, 3-((4-(4-((4-Methoxyphenoxy)methyl)benzamido)-3,5-dimethyl-1H-pyrazol-1-yl)methyl)-N-methylbenzamide] has an EC50 (MIA PaCa-2 cells) of 8 µM and an EC50 (Panc-1 cells) of 48 µM.

`CNC(=O)c1cccc(Cn2nc(C)c(NC(=O)c3ccc(COc4ccccc4Cl)cc3)c2C)c1` [Compound D5a, 3-((4-(4-((2-Chlorophenoxy)methyl)benzamido)-3,5-dimethyl-1H-pyrazol-1-yl)methyl)-N-methylbenzamide] showed an EC50 (MIA PaCa-2 cells) of 6.3 µM and an EC50 (Panc-1 cells) of 9.9 µM.

In the case of `CNC(=O)c1cccc(Cn2nc(C)c(NC(=O)c3ccc(COc4cccc(Cl)c4)cc3)c2C)c1` [Compound D5b, 3-((4-(4-((3-Chlorophenoxy)methyl)benzamido)-3,5-dimethyl-1H-pyrazol-1-yl)methyl)-N-methylbenzamide], the EC50 (MIA PaCa-2 cells) is reported as 5.9 µM and the EC50 (Panc-1 cells) is reported as 0.038 µM.
